The pKa sets of Baltruschat and Czodrowski (2020)

Settings: acidic group

| SMILES | pKa |
| --- | --- |
| CC(=O)/C=C(/C)O | 7.64 |
| CC[C@H](C(=O)O)[C@@]1(O)C[C@H]2CC[C@@H]1C2 | 4.07 |
| Cc1ccccc1NC(=S)c1ccccc1 | 10.2 |
| O=C(O)c1ccc([N+](=O)[O-])s1 | 2.68 |
| [NH3+][C@H]1CC[C@H](C(=O)O)CC1 | 3.92 |
| Cc1nn(-c2ccccc2)c(O)c1C | 11.3 |
| S=C(Nc1ccc(Cl)c(Cl)c1)c1ccccc1 | 9.96 |
| CNCCc1ccc(O)c(O)c1 | 10.6 |
| COc1cc(C(N)=O)ccc1-c1nc2c(ncn2C)[nH]1 | 11.7 |
| CCC(C)NC(C#N)=C(C#N)C#N (stereo not drawn) | 6.35 |
| CBr | 15.4 |
| Cc1cnc2c(O)cccc2c1 | 9.75 |
| O=C([O-])CS | 10.2 |
| N#CCCC(C(=O)O)c1ccccc1 (stereo not drawn) | 3.92 |
| CC(=O)NS(=O)(=O)c1ccc(C)cc1 | 4.8 |
| FC(F)(F)c1nc2ncncc2[nH]1 | 5.12 |
| CN(C)C(=O)CS | 8.1 |
| CC1(C)OC(=O)NC1=O | 6.15 |
| CNc1cccc[n+]1O | 2.61 |
| c1ccc(CSc2cnn[nH]2)cc1 | 8.2 |
| CC(=O)CC(=O)c1ccccc1 | 8.69 |
| O=c1cc[nH]cc1 | 11.1 |
| Oc1ccc(Cl)c2ccccc12 | 8.64 |
| O=C(O)C1CC1 | 4.83 |

| SMILES | pKa |
| --- | --- |
| O=C(O)c1cnoc1 | 3.39 |
| N#CC(C#N)=C(C#N)Nc1ccc(Br)cc1 | 4.45 |
| CC(=O)CC(N)=O | 10.4 |
| Nc1ccc(S(=O)(=O)Nc2ncccc2O)cc1 | 7.6 |
| CN(C)Cc1cc(OCc2ccccc2)ccc1O | 11.5 |
| COc1ccc2c3c([nH]c2c1)C(C)NCC3 (stereo not drawn) | 15.6 |
| CC1(C(=O)O)CCCCC1 | 5.13 |
| CC1(C)SC(=S)NC1=O | 5.38 |
| Nc1nc2c(ncn2[C@@H]2C=C[C@H](CO)C2)c(O)[nH+]1 | 3.15 |
| Cc1ccc(O)c([N+](=O)[O-])c1 | 7.4 |
| O=Nc1c(O)ccc2ncsc12 | 5.43 |
| Oc1ccc2ccnnc2c1 | 7.56 |
| N#Cc1c[nH+]c2ccccc2c1O | -2.08 |
| Cc1c[n+]([C@@H]2C[C@@H](O)[C@H](CO)O2)c(O)nc1N | 4.4 |
| O=C(C[n+]1cccc2c3ccccc3ccc21)c1ccccc1 | 11.3 |
| CCN(CC)S(=O)(=O)c1ccsc1C(=O)O | 2.77 |
| O=C(O)/C=C/C(=O)c1ccccc1 | 3.34 |
| CCC1=CC(=O)C=C(CC)C1=NO | 8.34 |
| Oc1nc2cc3ccccc3cc2[nH]1 | 11.6 |
| N#CSc1ccc(O)cc1 | 8.57 |
| CN(C)/C=N/c1cccc(O)c1 | 10.2 |
| O=C1CCC(C(=O)O)N1 (stereo not drawn) | 3.25 |
| O=C(O)C[NH+](CCNS(=O)(=O)c1ccccc1)CC(=O)O | 2.1 |
| O=S(=O)(Nc1cccc(C(F)(F)F)c1)c1ccccc1 | 7.63 |

| SMILES | pKa |
| --- | --- |
| Cc1cccc(Br)c1C(=O)O | 2.71 |
| CC(C)C(O[C@H]1O[C@@H](C(=O)O)[C@H](O)[C@@H](O)[C@@H]1O)C(C)C | 3.89 |
| O=P(O)(O)C([NH2+]Cc1ccc[nH+]c1)c1ccccc1O (stereo not drawn) | 2.28 |
| Nc1nc2ncncc2[nH]1 | 9.36 |
| O=C(O)c1cc([N+](=O)[O-])ccc1CO | 3.14 |
| NS(=O)(=O)c1cccc(C(=O)O)c1 | 3.61 |
| Cc1ccc(C(=O)O)c([N+](=O)[O-])c1 | 2.68 |
| O=C(O)c1ccc(Br)cc1 | 3.99 |
| CCc1c(O)nn(-c2ccccc2)c1C | 12.3 |
| CC(=O)NC(CS)C(=O)O (stereo not drawn) | 3.08 |
| O=C(O)C1Cc2ccccc2O1 (stereo not drawn) | 3.25 |
| O=C(O)C=C=Cc1ccccc1 | 3.7 |
| COc1ccccc1C(=O)O | 4.05 |
| COc1cccc[n+]1O | 1.23 |
| C#CC#CC#CCC(O)CCC(=O)O (stereo not drawn) | 4.75 |
| OC(O)=C(O)c1ccccc1 | 6.39 |
| CC[C@]1(c2ccccc2)NC(=O)NC1=O | 8.5 |
| Cc1cc(NS(=O)(=O)c2ccc(N)cc2)nc(C)n1 | 7.49 |
| CC(c1cccc([N+](=O)[O-])c1)[N+](=O)[O-] (stereo not drawn) | 6.67 |
| Cc1cc(O)n[nH]1 | 10.9 |
| N#CC(C#N)=NNc1ccc(CCCl)cc1 | 6.5 |
| C[NH2+]CCS | 8.02 |
| Oc1ccccc1-c1cc2ccccc2cc1O | 7.55 |
| COCc1ccccc1C(=O)O | 3.85 |

| SMILES | pKa |
| --- | --- |
| COC(=O)CS | 7.57 |
| O=C(O)[C@@H]1CC[C@H](C(=O)[O-])[Se]1 | 4.55 |
| Cc1ccc(I)c(C(=O)O)c1 | 2.95 |
| CC(C)SCC(=O)O | 3.72 |
| O=C(O)CC[C@@H]1NC(=O)CNC1=O | 4.36 |
| O=C(O)c1csc(Cl)c1 | 3.8 |
| COC(=O)[n+]1ccc(N)cc1 | 9.15 |
| O=C(O)c1ccc([N+](=O)[O-])cc1 | 3.43 |
| CCCCCCCCCCCNCc1ccc(C)cc1 | 9.46 |
| CC(C#N)C(=O)O (stereo not drawn) | 2.37 |
| CCO/C(C)=N/O | 11.4 |
| O=C(O)C[C@]1(O)C[C@H]2CC[C@@H]1C2 | 4.57 |
| CCC(C(=O)O)C(=O)N1CCCCC1 (stereo not drawn) | 3.86 |
| O=C(O)c1cc([N+](=O)[O-])ccc1C(=O)c1ccccc1 | 2.86 |
| CCC1(C2=CCCCC2)C(=O)NC(=S)NC1=O | 7.12 |
| O=C(O)c1[nH]c2ccccc2[nH+]1 | 0.4 |
| CC(=O)C1=CC=CC1 | 8.84 |
| COc1ccc(O)c(N)c1 | 10 |
| Oc1ccc(/N=N/c2ccncc2)cc1 | 7.73 |
| OCCC[n+]1cc(Br)c2ccccc2c1 | 12 |
| O=C([O-])c1ccc(NS(=O)(=O)c2ccccc2)cc1 | 7.75 |
| Cn1c(CO)nc2ccccc21 | 15.8 |

Same assay, conditions: basic group

| SMILES | pKa |
| --- | --- |
| Nc1ccnc2c1ncn2CCOCP(=O)(O)O | 5.49 |
| CCC(C)(CC)Nc1ccccc1 | 6.32 |
| Nc1cn[nH]c1 | 5.57 |
| [O-]c1c(Cl)c(Cl)cc(Cl)c1CN1CCOCC1 | 8.23 |
| Nc1ccc(Cl)c2ccccc12 | 3.4 |
| CN/C=[NH+]/c1cccc(-c2csc(N=C(N)N)n2)c1 | 6.29 |
| CSc1ccc(N)c(Cl)c1 | 2.56 |
| CNCCNC | 10.1 |
| c1c(CN2CC[NH2+]CC[NH2+]CC2)n[nH]c1CN1CCNCC[NH2+]CC1 | 6.08 |
| O=Cc1cccc(C=O)n1 | 1.92 |
| CNCCc1ccc(O)c(O)c1 | 8.84 |
| Cc1cc(C)c(C)nn1 | 4.81 |
| COc1ccc2nccc(C(O)C3CCCCN3)c2c1 (stereo not drawn) | 9.3 |
| COc1cc(C(N)=O)ccc1-c1nc2c(ncn2C)[nH]1 | 3.8 |
| CC(c1ccccc1)N1CC(O[Si](C)(C)C)C1 (stereo not drawn) | 7.82 |
| Cc1cc(C)n(Cc2cc(C)n(C)n2)[nH+]1 | 0.6 |
| Cc1cc([N+](=O)[O-])ccc1N | 1.97 |
| Cc1c(Cn2ccnc2)sc2ccc(C(=O)[O-])cc12 | 6.58 |
| N#CC1C(=O)Cc2ccccc21 (stereo not drawn) | 4.8 |
| Cc1cnc2c(O)cccc2c1 | 4.93 |
| NCCCC[NH3+] | 9.36 |

| SMILES | pKa |
| --- | --- |
| Cc1cscn1 | 3.14 |
| CCCCCCCCCCCCCNCCCCCCCCCCCCC | 11 |
| CC(Br)(CN)[N+](=O)[O-] (stereo not drawn) | 6.15 |
| CN(C)C(=S)c1ccccc1 | -2.3 |
| FC(F)(F)c1nc2ncncc2[nH]1 | 1 |
| CNCc1ccc(C)cc1 | 9.93 |
| NCCCc1cccnc1 | 10.1 |
| COc1cc(CN)c(C)cc1N | 9.54 |
| CN(C)CCCNc1ccnc2ccccc12 | 8.85 |
| CN(C)C1CCCCC1 | 10.5 |
| CC(C)c1cccnc1 | 5.72 |
| [NH3+]Cc1nc2ccccc2[nH]1 | 3.28 |
| [NH3+]CCC(=O)NCCc1c[nH]cn1 | 6.84 |
| CC(CN)/C(N)=N/O (stereo not drawn) | 9.15 |
| O=[N+]([O-])c1ccc(-n2cnnn2)cc1 | -3.92 |
| COC(=O)C(C)(C)c1c[nH]c(CO)n1 | 6.18 |
| Cc1ccc([C@@H](OCCN(C)C)c2ccccc2)cc1 | 8.5 |
| [O-]c1ccc([O-])nn1 | 13 |
| c1ccc(-c2ccc(NCC[NH+]3CCOCC3)nn2)cc1 | 3.74 |
| C[NH+](C)CCCNc1ccnc2c([N+](=O)[O-])cccc12 | 6.91 |
| Cc1ccc(-c2nnc(-c3ccccc3)o2)cc1 | 1.81 |

| SMILES | pKa |
| --- | --- |
| Oc1ccc2ccnnc2c1 | 3.31 |
| Cc1ccc2c(c1)ncn2[C@H]1OC[C@H](O)[C@@H](O)[C@@H]1O | 4.17 |
| CCN(CC)CC(O)C[NH+](CC)CC | 7.74 |
| CN(C)/C=N/c1cccc(O)c1 | 7.88 |
| CCN(CC)CCNc1nc(C)cc(N)n1 | 9.8 |
| CC(=O)n1ccnc1Cc1[nH]cc[nH+]1 | 1.93 |
| Nc1nc2ncncc2[nH]1 | 4.68 |
| C[n+]1c([S-])nc([O-])c2ccccc21 | 9.23 |
| Nc1ccc([NH3+])c(N)c1 | 3.69 |
| NCCC[n+]1ccc2ccccc2c1 | 8.97 |
| CCOC(=O)c1cnc(N)s1 | 3.04 |
| CCCCCCCCCCCCCCCCCCCCCCN | 10.6 |
| CCN(C)NC | 6.85 |
| c1csc(-c2nccs2)n1 | 2.76 |
| C=C[C@H]1C[NH+]2CC[C@@H]1C[C@H]2[C@H](O)c1ccnc2ccc(OC)cc12 | 4.22 |
| CCN(CCO)CC(C)O (stereo not drawn) | 8.9 |
| C[NH+]1C[C@H](C(=O)O)C[C@@]2(O)c3cccc4[nH]cc(c34)C[C@H]12 | 3.94 |
| Cc1cnc2c(ccc3cccnc32)c1 | 5 |
| CN1CCC[C@H]1c1cccnc1 | 7.85 |
| Nc1cccc2c([N+](=O)[O-])cccc12 | 2.8 |
| c1ccc2nc3ccccc3nc2c1 | 1.31 |

| SMILES | pKa |
| --- | --- |
| CCC(=O)C(CCN1CCOCC1)(c1ccccc1)c1ccccc1 | 6.98 |
| N#CC(C#N)=NNc1ccc(CCCl)cc1 | -0.81 |
| Cc1cc2ncn([C@H]3OC[C@H](O)[C@H](O)[C@@H]3O)c2cc1C | 4.7 |
| COCCCN | 9.92 |
| CCOC(=O)c1ccc(CCN)cc1 | 9.58 |
| Cc1ccc(N)cc1Br | 4.02 |
| C[C@H](CCCNCc1ccccc1)[C@H]1CC[C@H]2[C@@H]3CC[C@@H]4C[C@H](O)CC[C@]4(C)[C@H]3C[C@H](O)[C@]12C | 9.07 |
| CCN(CC)Cc1ccccc1 | 9.44 |
| CSc1ccc(N)c([N+](=O)[O-])c1 | -0.28 |
| Cn1ccc2ccccc2c1=O | -1.8 |
| C[Si](C)(C)CNC1CCCCC1 | 11 |
| Nc1ccc(C=O)cc1 | 1.74 |
| CCC1CSC(C(C)C)=N1 (stereo not drawn) | 5.28 |
| CC1[C@H](N)[C@H]1[NH3+] (stereo partly drawn) | 5.9 |
| CC1(C)CC2CCN1C(=O)C2 (stereo not drawn) | 5.33 |
| CN(c1ccccc1)C(C)(C)C | 7.5 |
| CCCCCCCCN | 10.8 |
| Oc1ccc(/N=N/c2ccncc2)cc1 | 4.65 |
| CCCCN(CCCC)c1ccccc1 | 6.41 |
| Cn1c(CO)nc2ccccc21 | 4.36 |
| Nc1ccncc1F | 4.77 |
